# “And” between values parts separate entries of the source, which are not always exact repeats. Equal entries are not always repeated.
# Key:
# [1] = molecular target: T1, GGP1 (Arabidopsis thaliana, UniProt Q9M0A7); settings: GS-X as substrate, 10 to 90 μM; purified recombinant His-tagged GGP1; ± SE; Michaelis-Menten fit
# T1 sequence (Q9M0A7 1-250): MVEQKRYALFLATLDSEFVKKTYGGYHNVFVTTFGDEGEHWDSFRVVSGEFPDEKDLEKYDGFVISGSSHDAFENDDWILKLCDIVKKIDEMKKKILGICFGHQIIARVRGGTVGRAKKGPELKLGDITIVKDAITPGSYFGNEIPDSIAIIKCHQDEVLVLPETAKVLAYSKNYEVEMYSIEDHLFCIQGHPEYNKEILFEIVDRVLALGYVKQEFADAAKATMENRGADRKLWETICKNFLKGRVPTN
# Method: Recombinant GGP1 was expressed in E. coli from the vector pRSET-A (Invitrogen) as an N-terminal His-tag fusion. Cells were grown in LB medium and induced by adding 0.02 mM IPTG at an OD600 of 0.1-0.4. After 16 hours of incubation at 18° C. and 220 rpm, cells were harvested and resuspended in binding buffer [100 mM Tris-HCl, 500 mM NaCl, 50 mM imidazole, pH 7.5] supplemented with 1 mM PMSF and 1 mM MgCl. Cell lysis was achieved by lysozyme treatment and subsequent sonication. Cell debris was spun down for 20 min at 20 000 g, and the supernatant was run through a Ni-NTA column. The column was washed with binding buffer, and bound protein was released with elution buffer [100 mM Tris-HCl, 500 mM NaCl, 500 mM imidazole, pH 7.5]. As a control, a parallel purification was performed for an empty pRSET-A vector.
# 200 ng of purified GGP1 or 200 ng of control protein were assayed in a final volume of 100 μL containing 20 mM Tris-HCl pH 7.5 and 20 μM GS-X. The reactions were stopped after 10 min upon addition of 300 μL methanol. After an overnight incubation at −20° C., the mixture was spun down for 20 min at 5 000 g and 200 μL of the supernatant were evaporated and redisolved in 50 μL of 75% methanol. Analysis was performed using the LC-MS/MS method previously described. For the determination of Km, similar assays were performed using a range of GS-X concentrations spanning from 10 to 90 μM. […]
# [2] = molecular target: T1, GGP1; assay: In-vitro assay for GGP1 activity with the standard substrate GPNA (absorbance at 405 nm); type: biochemical; design: His-tag (pRSET-A N-terminal leader) (N); made in house; host or cells: E. coli; settings: 1 mM GPNA, crude E. coli extract, linear part of the GGP1 curve
# Method: In vitro assays were assembled with […] of crude protein extract from a cleared E. coli lysate (before column purification) in 0.1 M Tris-HCl at pH 7.5 to a total volume of 150 μl. Assay is initiated by addition of GPNA to a final concentration of 1 mM and enzyme activity is measured by absorbance at 405 nm. Absorbance was measured with 5 minute intervals from time 0-20 minutes using a spectrophotometer.
Compound,Km [1],activity of crude extract containing recombinant GGP1 versus control extract (cleavage to p-nitroanilide) [2]
"NC(CCC(=O)NC(CSC(Cc1ccccc1)=NO)C(=O)NCC(=O)O)C(=O)O [GS-X, S-(phenylacetohydroxymoyl)-L-glutathione]",56.6 µM and 57 µM,–
"N[C@@H](CCC(=O)Nc1ccc([N+](=O)[O-])cc1)C(=O)O [GPNA, gamma-glutamyl-p-nitroanilide]",–,around 10 times

# — patent US9096863B2, “Biosynthetic engineering of glucosinolates” (University of Denmark, priority 2008, dated 2015)
